{"source": "patent US11045669B2", "about": "“Hydroalcoholic extract of Schinus molle, cosmetic compositions comprising the same and cosmetic uses thereof” (ISP INVESTMENTS LLC, priority 2015, dated 2021)", "key": {"[1]": {"tested_on": "Ribosomal protein S28 (RPS28)", "experiment": "RT-qPCR expression of RPS28 (housekeeping) in NHEK", "format": "cell-based, human", "settings": "24 h, CaCl2 1.5 mM", "protocol": "(§1) The potential effects of a hydroethanolic extract of Schinus molle obtained in accordance with Example 2 on skin hydration and barrier function were studied in a model of normal human epidermal keratinocytes (NHEKs) by analysing the expression profile of genes specific to the differentiation of keratinocytes and lipid synthesis by an RT-qPCR (reverse transcription quantitative polymerase chain reaction) method.\n(§2) • Cell type: 3rd passage NHEKs • Culture conditions: 37° C., 5% CO2 • Culture medium: keratinocyte SFM (serum free medium) supplemented with • epidermal growth factor (EGF) 0.25 ng/ml • pituitary extract (PE) 25 μg/ml • gentamicin 25 μg/ml • Test medium: keratinocyte SFM supplemented with gentamicin 25 μg/ml Tested Compounds\n(§3) The normal human epidermal keratinocytes (NHEKs) were seeded and cultivated in culture medium for 24 hours. […] All the conditions were performed with n=3.\n(§4) The expression of the markers was assessed by RT-qPCR on the mRNAs (messenger RNAs) extracted from the cell layers of each treatment (the replicates were pooled before the RNA extraction).\n(§5) The analysis of the expression of the genes was performed with n=2 with the aid of 2 “marker quantitative PCR arrays” containing 16 genes, including 2 housekeeping (HK) genes, dedicated to research and adapted to the screening format (mQPA-NHEK-BARRIER-16, product by BIOalternatives®).\n(§6) The incorporation of fluorescence in the amplified DNA is measured continuously during the course of the PCR cycles. These measurements make it possible to obtain intensity curves of the fluorescence depending on the PCR cycles and to thus evaluate a value of relative expression (RE) for each marker. The number of cycles is determined on the basis of “exit” points of the fluorescence curves. For the same analysed marker, the later a sample exits (appeared late, after a number of increased cycles), the lower is the initial number of copies of the mRNA.\n(§7) The RE (relative expression) value is expressed in arbitrary units (AU) in accordance with the following formula: (½^number of cycles)×10^6 […]"}, "[2]": {"tested_on": "Glyceraldehyde-3-phosphate dehydrogenase (GAPDH)", "settings": "NHEK, 24 h, CaCl2 1.5 mM", "protocol": "as §1, §2, §3, §4, §5, §6, §7"}, "Aquaporin 3 (AQP3)": {"tested_on": "Aquaporin 3 (AQP3)", "experiment": "RT-qPCR expression of AQP3 in NHEK", "format": "cell-based, human", "settings": "24 h, CaCl2 1.5 mM", "protocol": "as §1, §2, §3, §4, §5, §6, §7"}, "[3]": {"tested_on": "Hyaluronan synthase 3 (HAS3)", "experiment": "RT-qPCR expression of HAS3 in NHEK", "format": "cell-based, human", "settings": "24 h, CaCl2 1.5 mM", "protocol": "as §1, §2, §3, §4, §5, §6, §7"}, "[4]": {"tested_on": "Acyl-CoA synthetase short-chain family member 2 (ACSS2)", "experiment": "RT-qPCR expression of ACSS2 in NHEK", "format": "cell-based, human", "settings": "24 h, CaCl2 1.5 mM", "protocol": "as §1, §2, §3, §4, §5, §6, §7"}, "[5]": {"tested_on": "Fatty acid synthase (FASN)", "experiment": "RT-qPCR expression of FASN in NHEK", "format": "cell-based, human", "settings": "24 h, CaCl2 1.5 mM", "protocol": "as §1, §2, §3, §4, §5, §6, §7"}, "[6]": {"tested_on": "Serine palmitoyltransferase, long chain base subunit 1 (SPTLC1)", "experiment": "RT-qPCR expression of SPTLC1 in NHEK", "format": "cell-based, human", "settings": "24 h, CaCl2 1.5 mM", "protocol": "as §1, §2, §3, §4, §5, §6, §7"}, "[7]": {"tested_on": "LAG1 homolog, ceramide synthase 6 (LASS6)", "experiment": "RT-qPCR expression of LASS6 in NHEK", "format": "cell-based, human", "settings": "24 h, CaCl2 1.5 mM", "protocol": "as §1, §2, §3, §4, §5, §6, §7"}, "[8]": {"tested_on": "UDP-glucose ceramide glucosyltransferase (UGCG)", "experiment": "RT-qPCR expression of UGCG in NHEK", "format": "cell-based, human", "settings": "24 h, CaCl2 1.5 mM", "protocol": "as §1, §2, §3, §4, §5, §6, §7"}, "[9]": {"tested_on": "Sphingomyelin phosphodiesterase 1, acid lysosomal (SMPD1)", "experiment": "RT-qPCR expression of SMPD1 in NHEK", "format": "cell-based, human", "settings": "24 h, CaCl2 1.5 mM", "protocol": "as §1, §2, §3, §4, §5, §6, §7"}, "[10]": {"tested_on": "Glucosidase, beta; acid (GBA)", "experiment": "RT-qPCR expression of GBA in NHEK", "format": "cell-based, human", "settings": "24 h, CaCl2 1.5 mM", "protocol": "as §1, §2, §3, §4, §5, §6, §7"}, "[11]": {"tested_on": "Sulfotransferase family, cytosolic, 2B, member 1 (SULT2B1)", "experiment": "RT-qPCR expression of SULT2B1 in NHEK", "format": "cell-based, human", "settings": "24 h, CaCl2 1.5 mM", "protocol": "as §1, with “method. […]” for “method.”\nas §4, §5\n(§8) The incorporation of fluorescence in the amplified DNA is measured continuously during the course of the PCR cycles. These measurements make it possible to obtain intensity curves of the fluorescence depending on the PCR cycles and to thus evaluate a value of relative expression (RE) for each marker. The number of cycles is determined on the basis of “exit” points of the fluorescence curves. […]"}, "[12]": {"tested_on": "Arachidonate 12-lipoxygenase (ALOX12)", "experiment": "RT-qPCR expression of ALOX12 in NHEK", "format": "cell-based, human", "settings": "24 h, CaCl2 1.5 mM", "protocol": "as §1, with “method. […]” for “method.”\nas §4, §5, §8"}, "Claudin 1 (CLDN1)": {"tested_on": "Claudin 1 (CLDN1)", "experiment": "RT-qPCR expression of CLDN1 in NHEK", "format": "cell-based, human", "settings": "24 h, CaCl2 1.5 mM", "protocol": "as §1, §2, §3, §4, §5, §6, §7"}, "Filaggrin (FLG)": {"tested_on": "Filaggrin (FLG)", "experiment": "RT-qPCR expression of FLG in NHEK", "format": "cell-based, human", "settings": "24 h, CaCl2 1.5 mM", "protocol": "as §1, with “method. […]” for “method.”\nas §4, §5, §8"}, "Involucrin (IVL)": {"tested_on": "Involucrin (IVL)", "experiment": "RT-qPCR expression of IVL in NHEK", "format": "cell-based, human", "settings": "24 h, CaCl2 1.5 mM", "protocol": "as §1, with “method. […]” for “method.”\nas §4, §5, §8"}, "[13]": {"tested_on": "Transglutaminase 1 (TGM1)", "experiment": "RT-qPCR expression of TGM1 in NHEK", "format": "cell-based, human", "settings": "24 h, CaCl2 1.5 mM", "protocol": "as §1, with “method. […]” for “method.”\nas §4, §5, §8"}}}
{"molecule": "[Ca+2].[Cl-].[Cl-]", "note": "[CaCl2, calcium chloride]", "values": [{"measurement": "RPS28 expression, % Control (GAPDH)", "setting": "[1]", "value": 96, "unit": "% Control"}, {"measurement": "RPS28 expression, % Control (RPS28)", "setting": "[1]", "value": 100, "unit": "% Control"}, {"measurement": "RPS28 expression, % Control (mean HK)", "setting": "[1]", "value": 97, "unit": "% Control"}, {"measurement": "GAPDH expression, % Control (GAPDH)", "setting": "[2]", "value": 100, "unit": "% Control"}, {"measurement": "GAPDH expression, % Control (RPS28)", "setting": "[2]", "value": 104, "unit": "% Control"}, {"measurement": "GAPDH expression, % Control (mean HK)", "setting": "[2]", "value": 101, "unit": "% Control"}, {"measurement": "AQP3 expression, % Control (GAPDH)", "setting": "Aquaporin 3 (AQP3)", "value": 110, "unit": "% Control"}, {"measurement": "AQP3 expression, % Control (RPS28)", "setting": "Aquaporin 3 (AQP3)", "value": 115, "unit": "% Control"}, {"measurement": "AQP3 expression, % Control (mean HK)", "setting": "Aquaporin 3 (AQP3)", "value": 111, "unit": "% Control"}, {"measurement": "HAS3 expression, % Control (GAPDH)", "setting": "[3]", "value": 108, "unit": "% Control"}, {"measurement": "HAS3 expression, % Control (RPS28)", "setting": "[3]", "value": 112, "unit": "% Control"}, {"measurement": "HAS3 expression, % Control (mean HK)", "setting": "[3]", "value": 108, "unit": "% Control"}, {"measurement": "ACSS2 expression, % Control (GAPDH)", "setting": "[4]", "value": 127, "unit": "% Control"}, {"measurement": "ACSS2 expression, % Control (RPS28)", "setting": "[4]", "value": 132, "unit": "% Control"}, {"measurement": "ACSS2 expression, % Control (mean HK)", "setting": "[4]", "value": 128, "unit": "% Control"}, {"measurement": "FASN expression, % Control (GAPDH)", "setting": "[5]", "value": 105, "unit": "% Control"}, {"measurement": "FASN expression, % Control (RPS28)", "setting": "[5]", "value": 109, "unit": "% Control"}, {"measurement": "FASN expression, % Control (mean HK)", "setting": "[5]", "value": 106, "unit": "% Control"}, {"measurement": "SPTLC1 expression, % Control (GAPDH)", "setting": "[6]", "value": 95, "unit": "% Control"}, {"measurement": "SPTLC1 expression, % Control (RPS28)", "setting": "[6]", "value": 99, "unit": "% Control"}, {"measurement": "SPTLC1 expression, % Control (mean HK)", "setting": "[6]", "value": 96, "unit": "% Control"}, {"measurement": "LASS6 expression, % Control (GAPDH)", "setting": "[7]", "value": 103, "unit": "% Control"}, {"measurement": "LASS6 expression, % Control (RPS28)", "setting": "[7]", "value": 107, "unit": "% Control"}, {"measurement": "LASS6 expression, % Control (mean HK)", "setting": "[7]", "value": 104, "unit": "% Control"}, {"measurement": "UGCG expression, % Control (GAPDH)", "setting": "[8]", "value": 118, "unit": "% Control"}, {"measurement": "UGCG expression, % Control (RPS28)", "setting": "[8]", "value": 123, "unit": "% Control"}, {"measurement": "UGCG expression, % Control (mean HK)", "setting": "[8]", "value": 119, "unit": "% Control"}, {"measurement": "SMPD1 expression, % Control (GAPDH)", "setting": "[9]", "value": 108, "unit": "% Control"}, {"measurement": "SMPD1 expression, % Control (RPS28)", "setting": "[9]", "value": 113, "unit": "% Control"}, {"measurement": "SMPD1 expression, % Control (mean HK)", "setting": "[9]", "value": 109, "unit": "% Control"}, {"measurement": "GBA expression, % Control (GAPDH)", "setting": "[10]", "value": 123, "unit": "% Control"}, {"measurement": "GBA expression, % Control (RPS28)", "setting": "[10]", "value": 128, "unit": "% Control"}, {"measurement": "GBA expression, % Control (mean HK)", "setting": "[10]", "value": 124, "unit": "% Control"}, {"measurement": "SULT2B1 expression, % Control (GAPDH)", "setting": "[11]", "value": 244, "unit": "% Control"}, {"measurement": "SULT2B1 expression, % Control (RPS28)", "setting": "[11]", "value": 254, "unit": "% Control"}, {"measurement": "ALOX12 expression, % Control (GAPDH)", "setting": "[12]", "value": 151, "unit": "% Control"}, {"measurement": "ALOX12 expression, % Control (RPS28)", "setting": "[12]", "value": 158, "unit": "% Control"}, {"measurement": "CLDN1 expression, % Control (GAPDH)", "setting": "Claudin 1 (CLDN1)", "value": 145, "unit": "% Control"}, {"measurement": "CLDN1 expression, % Control (RPS28)", "setting": "Claudin 1 (CLDN1)", "value": 152, "unit": "% Control"}, {"measurement": "CLDN1 expression, % Control (mean HK)", "setting": "Claudin 1 (CLDN1)", "value": 147, "unit": "% Control"}, {"measurement": "FLG expression, % Control (GAPDH)", "setting": "Filaggrin (FLG)", "value": 151, "unit": "% Control"}, {"measurement": "FLG expression, % Control (RPS28)", "setting": "Filaggrin (FLG)", "value": 157, "unit": "% Control"}, {"measurement": "IVL expression, % Control (GAPDH)", "setting": "Involucrin (IVL)", "value": 175, "unit": "% Control"}, {"measurement": "IVL expression, % Control (RPS28)", "setting": "Involucrin (IVL)", "value": 183, "unit": "% Control"}, {"measurement": "TGM1 expression, % Control (GAPDH)", "setting": "[13]", "value": 274, "unit": "% Control"}, {"measurement": "TGM1 expression, % Control (RPS28)", "setting": "[13]", "value": 285, "unit": "% Control"}]}
